# Counter-ions that a name gives are not always drawn.
# Assay: Anoxia-induced lethality test in mice (survival in 100% nitrogen)
# Type: in vivo, Male, CD-1 mice
# Details: Mus musculus, ip, 30 minutes prior to testing; 100% nitrogen for 80 seconds; read-out: ED50, protected from anoxia-induced lethality in mice
# Source text: To test the protective ability of the compounds of formula I against the physical consequences of anoxia, mice were exposed to an atmosphere of pure nitrogen which killed all of the animals. Intraperitoneal pretreatment of mice with the compounds of formula I protected them against this lethal effect.
# ANOXIA-INDUCED LETHALITY TEST IN MICE
# The anoxia-induced lethality test in mice evaluates the activity of drugs which protect the animal from deleterious effects of oxygen-lack, such as occurs in conditions of cerebral ischemia. Activity is measured as the survival rate in mice exposed to 100% nitrogen for 80 seconds, a procedure which is lethal to […] of untreated animals.
# Test compounds are dissolved in water, or suspended in 0.2% aqueous Tween 80 and are administered i.p., 30 minutes prior to testing. Several doses and a vehicle control are tested, with 8 mice receiving each dose.
# Male, CD-1 mice weighing 18-20 g are used. Mice are held separately within a cage in a modified plastic, air-tight desiccator which is connected to a tank of compressed 100% nitrogen gas.
# Delivery of the anoxic gas is controlled by means of a toggle valve, and exposure is terminated by rapidly removing the mice from the desiccator. All operations are timed with a stopwatch. An ED50 value is determined from the percentage of mice which survive in each group. Drugs which reduce the anoxia-induced lethality solely by lowering body temperature are excluded.
row,SMILES,ED50
1,"Cc1c2n(c3ccccc13)CCCC2N(C)C.Cl (stereo not drawn) [Example 3, 6,7,8,9-Tetrahydro-N,N,10-trimethylpyrido[1,2-a]indole-9-amine Hydrochloride]",13.5 mg/kg

# Same assay, conditions: Mus musculus, ip, read-out: ED50, protected from anoxia-induced lethality in mice
row,SMILES,ED50
1,"Br.Cc1c2n(c3ccc(O)cc13)CCC(C)(C)C2N1CCCC1 (stereo not drawn) [Example 33, 6,7,8,9-Tetrahydro-2-hydroxy-8,8,10-trimethyl-9-(1-pyrrolidinyl)-pyrido[1,2-a]indole Hydrobromide]",20 mg/kg
2,"COc1ccc2c(C)c3n(c2c1)CCCC3N(C)C.Cl (stereo not drawn) [Example 28, 6,7,8,9-Tetrahydro-3-methoxy-N,N,10-trimethylpyrido[1,2-a]indol-9-amine Hydrochloride]",20 mg/kg
3,"Cc1c2n(c3ccccc13)CCC(C)(C)C2N(C)C1CCCCC1 (stereo not drawn) [Example 32, N-Cyclohexyl-6,7,8,9-tetrahydro-N,8,8,10-tetramethylpyrido[1,2-a]indol-9-amine]",8.8 mg/kg
4,"CNC1CCCn2c1c(C)c1ccc(OC)cc12.Cl (stereo not drawn) [Example 27, 6,7,8,9-Tetrahydro-3-methoxy-N,10-dimethylpyrido[1,2-a]indol-9-amine Hydrochloride]",15.1 mg/kg
5,"Cc1c2n(c3ccc(Br)cc13)CCC(C)(C)C2N1CCCC1.Cl (stereo not drawn) [Example 17, 2-Bromo-6,7,8,9-tetrahydro-8,8,10-trimethyl-9-(1-pyrrolidinyl)pyrido[1,2-a]indole Hydrochloride]",50 mg/kg
6,"Cc1c2n(c3ccccc13)CCCC2N1CCOCC1.Cl (stereo not drawn) [Example 9, 6,7,8,9-Tetrahydro-10-methyl-9-(4-morpholinyl)-pyrido[1,2-a]indole Hydrochloride]",32.4 mg/kg
7,"Cc1c2n(c3ccccc13)CCC(C)(C)C2N1CCCC1 (stereo not drawn) [Example 1, 6,7,8,9-Tetrahydro-8,8,10-trimethyl-9-(1-pyrrolidinyl)-pyrido[1,2,a]indole Hydrochloride]",11.2 mg/kg
8,"CCC1(CC)CCn2c(c(C)c3ccccc32)C1N1CCCC1 (stereo not drawn) [Example 6, 8,8-diethyl-6,7,8,9-tetrahydro-10-methyl-9-(1-pyrolidinyl)pyrido[1,2-a]indole Hydrochloride]",20 mg/kg
9,"Cc1c2n(c3ccccc13)CCCC2N1CCCC1.Cl (stereo not drawn) [Example 2, 6,7,8,9-Tetrahydro-10-methyl-9-(1-pyrrolidinyl)pyrido[1,2-a]indole Hydrochloride]",83.3 mg/kg
10,"Br.Cc1c2n(c3ccccc13)CCC(C)(C)C2N(C)C (stereo not drawn) [Example 4, 6,7,8,9-Tetrahydro-N,N,8,8,10-pentamethylpyrido[1,2-a]indol-9-amine Hydrobromide]",5 mg/kg
11,"Cc1c2n(c3ccc(Br)cc13)CCCC2N1CCCCC1.Cl (stereo not drawn) [Example 19, 2-Bromo-6,7,8,9-tetrahydro-10-methyl-9-(1-piperidinyl)-pyrido[1,2-a]indole Hydrochloride]",110 mg/kg
12,"Cc1c2n(c3ccccc13)CCC(C)(C)C2N.Cl (stereo not drawn) [Example 29, 6,7,8,9-Tetrahydro-8,8,10-trimethylpyrido[1,2-a]indol-9-amine Hydrochloride]",17.2 mg/kg
13,"C#CCNC1CCCn2c1c(C)c1ccccc12.Cl (stereo not drawn) [Example 7, 6,7,8,9-Tetrahydro-10-methyl-N-(2-propynyl)pyrido[1,2-a]indol-9-amine Hydrochloride]",22 mg/kg
14,"Cc1c2n(c3ccccc13)CCCC2N1CCCCC1.Cl (stereo not drawn) [Example 8, 6,7,8,9-Tetrahydro-10-methyl-9-(1-piperidinyl)-pyrido[1,2-a]indole Hydrochloride]",55.7 mg/kg

# Assay: not given
# Details: scopolamine alone; passive avoidance; cited from earlier work
row,SMILES,memory effect of scopolamine (in words)
1,CN1[C@@H]2C[C@@H](OC(=O)[C@H](CO)c3ccccc3)C[C@H]1[C@@H]1O[C@@H]12 [scopolamine],impairs the rat's ability to remember to avoid the darkened enclosure

# Assay: Passive avoidance test: prevention of scopolamine-induced memory impairment in rats
# Type: in vivo, male Sprague-Dawley rats
# Details: 30 mg/kg test compound, oral, 75 or 90 min before training; scopolamine 2 mg/kg s.c.; retention test 24 h later, 180 seconds access
# Method: In the test, a rat must remember to avoid a darkened enclosure where it had been shocked the previous day.
# This passive avoidance procedure uses a test chamber divided into two compartments: a lighted compartment and a dark compartment.
# The two compartments are separated by a solenoid-operated slide door. An inescapable foot shock (750 μA for two seconds) can be presented to the grid floor of the dark compartment.
# On the training day, male Sprague-Dawley rats (eight animals are tested per group) are placed in the lighted compartment and given access to the adjacent dark compartment. Upon entering the dark compartment, the rat is given an inescapable foot shock. Twenty-four hours later retention (memory) is tested: the rat is placed in the lighted compartment and allowed access to the dark compartment for 180 seconds.
# Compounds to be tested are dissolved in 0.9% saline or suspended in Tween 80 (0.2% v/v in saline) or methyl cellulose (0.5% w/v in distilled water). […] Appropriate vehicle and control groups are included with each experiment. Each animal is given a single training trial.
row,SMILES,mean entry latency on retention day
1,"Cc1c2n(c3ccccc13)CCC(C)(C)C2N1CCCC1 (stereo not drawn) [Example 1, 6,7,8,9-Tetrahydro-8,8,10-trimethyl-9-(1-pyrrolidinyl)-pyrido[1,2,a]indole Hydrochloride]",152 s
2,"Cc1c2n(c3ccccc13)CCCC2N1CCCC1.Cl (stereo not drawn) [Example 2, 6,7,8,9-Tetrahydro-10-methyl-9-(1-pyrrolidinyl)pyrido[1,2-a]indole Hydrochloride]",135 s

# Reference: patent US4624954A, “6,7,8,9-tetrahydro-10-methylpyrido[1,2-a]indol-9-amines and derivatives thereof, useful for the treatment of cognitive impairments” (American Home Products Corporation, priority 1985, dated 1986)
